In the supplement of paper PMC10307832:

Key:
Experiment in all cases: relative viability (nuclei count vs DMSO), 5 days (fraction); higher = more cells survive
Alpelisib + Decitabine = compound: Cc1nc(NC(=O)N2CCC[C@H]2C(N)=O)sc1-c1ccnc(C(C)(C)C(F)(F)F)c1 [Alpelisib] + Nc1ncn([C@H]2C[C@H](O)[C@@H](CO)O2)c(=O)n1 [Decitabine] (partner 2 µM)
Method in brief: (§1)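 Values are medians from duplicate plates. Each reflects relative viability, defined as the nuclei count of treated wells over that of vehicle wells. Lung cancer cell lines in 1536-well plates were pin-tool dosed one day after seeding with one drug alone or with a fixed anchor-drug dose plus five library-drug doses (not always all listed) in √10 steps, then fixed, stained and imaged at 4× after 5 days.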

OSI-027 + Vorinostat = compound: COc1cccc2cc(-c3nc([C@H]4CC[C@H](C(=O)O)CC4)n4ncnc(N)c34)[nH]c12 [OSI-027] + O=C(CCCCCCC(=O)Nc1ccccc1)NO [Vorinostat] (partner 1 µM)
Method in brief: as §1

Vemurafenib + Dasatinib = compound: CCCS(=O)(=O)Nc1ccc(F)c(C(=O)c2c[nH]c3ncc(-c4ccc(Cl)cc4)cc23)c1F [Vemurafenib] + Cc1nc(Nc2ncc(C(=O)Nc3c(C)cccc3Cl)s2)cc(N2CCN(CCO)CC2)n1 [Dasatinib] (partner 0.075 µM)
Method in brief: as §1

Alpelisib + Pictilisib = compound: Cc1nc(NC(=O)N2CCC[C@H]2C(N)=O)sc1-c1ccnc(C(C)(C)C(F)(F)F)c1 [Alpelisib] + CS(=O)(=O)N1CCN(Cc2cc3nc(-c4cccc5[nH]ncc45)nc(N4CCOCC4)c3s2)CC1 [Pictilisib] (partner 1 µM)
Method in brief: as §1

Row | Cell Line | relative viability (Alpelisib + Decitabine; first compound 0.04 µM) | relative viability (Alpelisib + Decitabine; first compound 0.1265 µM) | relative viability (Alpelisib + Decitabine; first compound 0.4 µM) | relative viability (Alpelisib + Decitabine; first compound 1.265 µM) | relative viability (Alpelisib + Decitabine; first compound 4 µM) | relative viability (OSI-027 + Vorinostat; first compound 0.01 µM) | relative viability (OSI-027 + Vorinostat; first compound 0.03162 µM) | relative viability (OSI-027 + Vorinostat; first compound 0.1 µM) | relative viability (OSI-027 + Vorinostat; first compound 0.3162 µM) | relative viability (OSI-027 + Vorinostat; first compound 1 µM) | relative viability (Vemurafenib + Dasatinib; first compound 0.03162 µM) | relative viability (Vemurafenib + Dasatinib; first compound 0.1 µM) | relative viability (Vemurafenib + Dasatinib; first compound 0.3162 µM) | relative viability (Vemurafenib + Dasatinib; first compound 1 µM) | relative viability (Alpelisib + Pictilisib; first compound 0.04 µM) | relative viability (Alpelisib + Pictilisib; first compound 0.1265 µM) | relative viability (Alpelisib + Pictilisib; first compound 0.4 µM) | relative viability (Alpelisib + Pictilisib; first compound 1.265 µM) | relative viability (Alpelisib + Pictilisib; first compound 4 µM)
1 | RERF-LC-KJ | 0.668 | 0.638 | 0.706 | 0.5 | 0.536 | 0.647 | 0.685 | 0.595 | 0.529 | 0.426 | 0.768 | 0.768 | 0.586 | 0.786 | 0.557 | 0.583 | 0.559 | 0.268 | 0.46
2 | SK-LU-1 | 0.649 | 0.645 | 0.633 | 0.577 | 0.589 | 0.809 | 0.618 | 0.682 | 0.563 | 0.411 | 0.16 | 0.17 | 0.159 | 0.185 | 0.592 | 0.484 | 0.656 | 0.594 | 0.536
3 | SK-MES-1 | 0.363 | 0.376 | 0.358 | 0.292 | 0.297 | 1.21 | 1.08 | 0.972 | 0.913 | 0.593 | 0.372 | 0.155 | 0.303 | 0.389 | 0.361 | 0.39 | 0.467 | 0.333 | 0.316
4 | SW 1573 | 0.489 | 0.453 | 0.626 | 0.365 | 0.359 | 0.818 | 0.718 | 0.669 | 0.728 | 0.393 | 0.567 | 0.428 | 0.36 | 0.347 | 0.498 | 0.506 | 0.557 | 0.459 | 0.352
